Tests used:
[1] = target: T1, ABCB4 WT (Homo sapiens, UniProt P21439); experiment: ABCB4 WT assay: HiBit protein expression; type: cell-based; details: HEK-293 cells stably expressing HiBit-tagged ABCB4 WT; 24 h treatment; top concentration 30 μM; read-out: ABCB4 WT EC50, Emax
T1 construct: expressed in transfected cells
Summary of the method: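 HEK-293 cells stably expressing HiBit-tagged human ABCB4 WT, treated 24 h at 37 °C with 11-dose 3-fold dilutions, top final 30 μM in 0.3% DMSO. HiBit lytic reagent luminescence read after 1 h at 25 °C; Emax and EC50 derived.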

[2] = target: T2, ABCA4 P1380L (Homo sapiens, UniProt P78363, P1380L); experiment: A4 correction dose-response assay: ABCA4 P1380L HiBit protein expression; type: cell-based; details: HEK-293 cells stably expressing HiBit-tagged ABCA4 P1380L; 24 h treatment; top concentration 30 μM; read-out: ABCA4 P1380L EC50, Emax
T2 construct: expressed in transfected cells
Summary of the method: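 Cells transfected with HiBit-tagged human ABCA4 P1380L cDNA were treated for 24 h at 37°C with an eleven-point dilution series (top final 30 μM, 0.3% DMSO).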

T1 sequence (P21439 whole entry): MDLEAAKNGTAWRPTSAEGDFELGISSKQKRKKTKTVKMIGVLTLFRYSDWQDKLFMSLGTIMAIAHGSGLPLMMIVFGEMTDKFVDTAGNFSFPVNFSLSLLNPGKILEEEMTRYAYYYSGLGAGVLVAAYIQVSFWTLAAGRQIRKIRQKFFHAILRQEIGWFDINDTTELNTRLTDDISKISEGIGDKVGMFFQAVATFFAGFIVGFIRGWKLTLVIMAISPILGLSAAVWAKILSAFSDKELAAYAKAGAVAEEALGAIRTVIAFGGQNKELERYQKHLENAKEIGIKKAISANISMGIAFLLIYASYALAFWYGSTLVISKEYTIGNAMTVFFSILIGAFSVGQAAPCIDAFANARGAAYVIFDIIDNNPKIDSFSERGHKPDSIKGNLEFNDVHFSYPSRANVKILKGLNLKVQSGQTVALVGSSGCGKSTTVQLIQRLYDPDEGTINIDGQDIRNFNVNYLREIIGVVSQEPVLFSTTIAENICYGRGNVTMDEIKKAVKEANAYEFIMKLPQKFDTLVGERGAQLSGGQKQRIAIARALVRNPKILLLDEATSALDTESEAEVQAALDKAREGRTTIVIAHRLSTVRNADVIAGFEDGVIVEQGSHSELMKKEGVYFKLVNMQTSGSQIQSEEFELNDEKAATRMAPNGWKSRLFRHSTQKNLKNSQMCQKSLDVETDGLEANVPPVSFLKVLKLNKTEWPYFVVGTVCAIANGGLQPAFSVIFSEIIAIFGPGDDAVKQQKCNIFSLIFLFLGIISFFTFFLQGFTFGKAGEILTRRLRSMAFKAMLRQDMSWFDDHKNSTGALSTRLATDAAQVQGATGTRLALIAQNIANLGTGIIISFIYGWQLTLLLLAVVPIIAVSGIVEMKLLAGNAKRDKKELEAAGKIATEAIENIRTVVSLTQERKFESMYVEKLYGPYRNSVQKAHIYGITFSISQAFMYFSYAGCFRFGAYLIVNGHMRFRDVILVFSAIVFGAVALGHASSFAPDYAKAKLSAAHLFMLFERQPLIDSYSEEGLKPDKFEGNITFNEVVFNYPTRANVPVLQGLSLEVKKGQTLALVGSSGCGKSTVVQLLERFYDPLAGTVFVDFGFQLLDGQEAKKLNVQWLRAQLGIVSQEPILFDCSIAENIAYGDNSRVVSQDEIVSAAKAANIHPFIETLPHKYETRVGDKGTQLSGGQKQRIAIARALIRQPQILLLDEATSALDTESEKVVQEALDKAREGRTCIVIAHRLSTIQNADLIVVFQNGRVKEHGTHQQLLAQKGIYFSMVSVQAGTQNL
T2 sequence (P78363 whole entry P1380L): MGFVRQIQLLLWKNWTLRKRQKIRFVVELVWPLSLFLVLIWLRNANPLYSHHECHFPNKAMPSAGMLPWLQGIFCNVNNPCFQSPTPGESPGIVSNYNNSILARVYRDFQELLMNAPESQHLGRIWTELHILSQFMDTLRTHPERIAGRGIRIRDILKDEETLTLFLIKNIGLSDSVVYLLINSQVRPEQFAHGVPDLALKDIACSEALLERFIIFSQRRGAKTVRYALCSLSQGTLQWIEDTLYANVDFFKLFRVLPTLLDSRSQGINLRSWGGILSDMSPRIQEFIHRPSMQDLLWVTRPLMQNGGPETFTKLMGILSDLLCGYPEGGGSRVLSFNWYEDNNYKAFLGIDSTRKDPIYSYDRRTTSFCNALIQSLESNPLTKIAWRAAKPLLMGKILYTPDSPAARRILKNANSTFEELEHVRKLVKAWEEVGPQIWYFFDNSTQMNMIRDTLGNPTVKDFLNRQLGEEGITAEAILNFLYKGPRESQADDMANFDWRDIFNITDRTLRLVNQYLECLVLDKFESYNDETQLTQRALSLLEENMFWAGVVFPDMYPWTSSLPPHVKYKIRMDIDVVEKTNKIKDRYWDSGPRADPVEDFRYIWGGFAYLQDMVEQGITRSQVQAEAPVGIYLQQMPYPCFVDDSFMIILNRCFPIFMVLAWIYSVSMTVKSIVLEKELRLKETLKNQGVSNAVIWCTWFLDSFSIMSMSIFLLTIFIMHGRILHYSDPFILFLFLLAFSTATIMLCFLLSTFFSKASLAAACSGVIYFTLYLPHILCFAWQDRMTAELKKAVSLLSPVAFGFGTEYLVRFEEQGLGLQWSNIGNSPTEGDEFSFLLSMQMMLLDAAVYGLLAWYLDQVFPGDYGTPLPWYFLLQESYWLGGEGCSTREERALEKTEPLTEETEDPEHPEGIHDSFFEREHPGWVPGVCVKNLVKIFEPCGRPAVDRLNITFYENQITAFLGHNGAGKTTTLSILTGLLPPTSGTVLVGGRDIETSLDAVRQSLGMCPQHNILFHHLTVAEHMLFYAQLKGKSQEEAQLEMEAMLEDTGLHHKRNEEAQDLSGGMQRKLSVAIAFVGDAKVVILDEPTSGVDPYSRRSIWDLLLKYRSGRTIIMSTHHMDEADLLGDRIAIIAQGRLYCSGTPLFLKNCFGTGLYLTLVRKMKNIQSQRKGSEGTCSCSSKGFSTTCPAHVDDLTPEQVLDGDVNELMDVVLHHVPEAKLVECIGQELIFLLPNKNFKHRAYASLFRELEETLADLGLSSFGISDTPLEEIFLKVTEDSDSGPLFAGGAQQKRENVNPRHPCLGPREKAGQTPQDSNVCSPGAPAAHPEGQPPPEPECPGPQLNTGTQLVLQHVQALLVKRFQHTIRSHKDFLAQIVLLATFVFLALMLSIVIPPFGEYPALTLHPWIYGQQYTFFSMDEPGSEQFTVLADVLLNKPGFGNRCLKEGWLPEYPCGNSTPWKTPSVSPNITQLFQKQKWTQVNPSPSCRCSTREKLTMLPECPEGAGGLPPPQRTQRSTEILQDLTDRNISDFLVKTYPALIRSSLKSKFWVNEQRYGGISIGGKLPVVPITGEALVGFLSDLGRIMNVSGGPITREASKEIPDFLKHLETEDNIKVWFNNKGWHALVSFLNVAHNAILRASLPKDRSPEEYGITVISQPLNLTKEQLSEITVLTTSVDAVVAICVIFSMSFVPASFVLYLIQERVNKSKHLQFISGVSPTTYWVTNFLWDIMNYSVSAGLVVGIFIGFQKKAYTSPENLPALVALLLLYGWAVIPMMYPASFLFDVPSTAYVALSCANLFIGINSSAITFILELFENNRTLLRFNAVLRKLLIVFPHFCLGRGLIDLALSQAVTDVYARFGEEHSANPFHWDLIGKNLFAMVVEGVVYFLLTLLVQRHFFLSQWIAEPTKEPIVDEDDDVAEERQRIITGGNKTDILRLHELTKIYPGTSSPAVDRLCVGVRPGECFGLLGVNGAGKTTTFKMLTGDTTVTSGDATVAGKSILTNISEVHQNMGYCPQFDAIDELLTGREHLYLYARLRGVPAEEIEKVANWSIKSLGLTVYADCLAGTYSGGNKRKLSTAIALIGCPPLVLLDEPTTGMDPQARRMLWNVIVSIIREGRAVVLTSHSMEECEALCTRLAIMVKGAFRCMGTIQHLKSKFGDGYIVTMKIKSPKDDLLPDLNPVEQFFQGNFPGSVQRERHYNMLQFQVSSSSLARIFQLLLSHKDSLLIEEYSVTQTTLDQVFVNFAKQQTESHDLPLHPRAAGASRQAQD

Row | EC50 [1] | EC50 [2] | SMILES
1 | < 25 µM | 1 to 10 µM | Cc1cc(C)c(Oc2nc(-n3cnc(C#N)c3)ccc2N(C)S(C)(=O)=O)c(C)c1 [Compound I-272]
2 | < 25 µM | < 25 µM | Cc1cc(C)c(Oc2nc(-n3cnc(C#N)c3)ccc2NS(C)(=O)=O)c(C)c1 [Compound I-273]
3 | < 25 µM | < 1 µM | Cc1cc(C)c(Oc2nc(-n3cc(C#N)cn3)ccc2NS(C)(=O)=O)c(C)c1 [Compound I-274]
4 | ≥ 25 µM | < 25 µM | Cc1cc(C)c(Oc2nc(-c3cncc(C#N)c3)cnc2NS(C)(=O)=O)c(C)c1 [Compound I-275]
5 | < 1 µM | < 1 µM | Cc1cc(C)c(Oc2nc(-c3cncc(C#N)c3)ccc2NS(=O)(=O)C(C)C)c(C)n1 [Compound I-276]
6 | ≥ 25 µM | < 25 µM | Cc1cc(C)c(Oc2nc(-c3cncc(Cl)c3)cnc2NS(C)(=O)=O)c(C)c1 [Compound I-277]
7 | ≥ 25 µM | 1 to 10 µM | Cc1cc(C)c(Oc2nc(-c3cncc(S(C)(=O)=O)c3)ccc2NS(C)(=O)=O)c(C)c1 [Compound I-278]
8 | < 1 µM | < 1 µM | Cc1cc(C)c(Oc2nc(-c3cncc(C#N)c3)ccc2S(C)(=N)=O)c(C)c1 (centres unmarked) [Compound I-279]
9 | < 1 µM | < 1 µM | Cc1cc(C)c(Oc2nc(-c3cncc(C#N)c3)ccc2S(N)(=O)=O)c(C)c1 [Compound I-280]
10 | < 1 µM | < 1 µM | CNS(=O)(=O)c1ccc(-c2cncc(C#N)c2)nc1Oc1c(C)cc(C)cc1C [Compound I-281]
11 | ≥ 25 µM | > 25 µM | Cc1cc(C)c(Oc2nc(-c3cc(Cl)cnc3C)ccc2NS(C)(=O)=O)c(C)n1 [Compound I-282]
12 | < 1 µM | < 1 µM | Cc1cc(C)c(Oc2nc(-c3cn(C)nc3C)ccc2NS(C)(=O)=O)c(C)c1 [Compound I-283]
13 | < 1 µM | < 25 µM | Cc1cc(C)c(Oc2nc(-c3cncc(C#N)c3)ncc2NS(C)(=O)=O)c(C)n1 [Compound I-284]
14 | ≥ 25 µM | > 25 µM | Cc1cc(C)c(Oc2nc(N3CCN(C(=O)C4CC4)CC3)ccc2S(N)(=O)=O)c(C)c1 [Compound I-285]
15 | < 1 µM | > 25 µM | Cc1cc(C2CC2)nc(C2CC2)c1Oc1nc(-c2cncc(C#N)c2)ccc1S(=N)(=O)C1CC1 (centres unmarked) [Compound I-317]
16 | 1 to 10 µM | > 25 µM | Cc1cc(C(F)F)cc(C2CC2)c1Oc1nc(-c2cncc(C#N)c2)ccc1S(=N)(=O)C1CC1 (centres unmarked) [Compound I-319]
17 | < 25 µM | < 25 µM | Cc1cc(C(F)F)nc(C2CC2)c1Oc1nc(-c2cncc(C#N)c2)ccc1S(=O)(=O)NC1CCOCC1 [Compound I-320]
18 | 1 to 10 µM | < 25 µM | Cc1cc(C(F)F)nc(C2CC2)c1Oc1nc(-c2cncc(C#N)c2)ccc1S(=O)(=O)NC1COC1 [Compound I-321]
19 | < 25 µM | 1 to 10 µM | Cc1cc(C2CC2)nc(C2CC2)c1Oc1nc(-c2cncc(C#N)c2)ccc1S(=O)(=O)NC1CCOCC1 [Compound I-322]
20 | < 25 µM | 1 to 10 µM | Cc1cc(C)c(Oc2[nH]c(-c3cncc(C#N)c3)cc(=O)c2NS(C)(=O)=O)c(C)n1 [Compound I-325]
21 | < 25 µM | < 1 µM | Cc1cc(C)c(Oc2nc(-c3cc(C#N)c[nH]c3=O)ccc2NS(C)(=O)=O)c(C)n1 [Compound I-326]
22 | < 1 µM | < 1 µM | Cc1cc(C)c(Oc2nc(-c3cncc(C#N)c3)c(O)cc2NS(C)(=O)=O)c(C)n1 [Compound I-327]

— US20250228835A1, “PYRIDINYLOXYPYRIDINES AND RELATED COMPOUNDS AND THEIR USE IN TREATING MEDICAL CONDITIONS” (Rectify Pharmaceuticals, Inc., priority 2024, published 2025)
